Experiment [1] relates to Choline acetyltransferase (ChAT) mRNA. In words: Measurement of choline acetyltransferase (ChAT) mRNA expression levels in the rat septal area. The experiment is classed as in vivo. As to conditions: SD male rats, oral, 10 mg/kg, medial septum 24 hours after administration, qPCR. On the procedure:
Measurement of Choline Acetyltransferase (ChAT) mRNA Expression Levels in the Rat Septal Area
(§1) (1) Compound Administration
In this study, SD male rats (Charles River Laboratories Japan, Inc. with a body weight of about 250 to 350 g were used. The compound was dissolved in 0.01 mol/L hydrochloric acid, and orally administered.
At 24 hours after the administration of the compound, the whole brain tissue was collected under pentobarbital anesthesia. The medial septum was isolated from whole brain on ice and frozen with liquid nitrogen, and them stored at −80° C.
(3) Measurement of ChAT […] Expression Levels
For RNA purification, RNeasy Plus Mini Kit (#74136: QIAGEN) was used in this study. RNA purification was performed by the method described in the kit, After RNA purification, the total RNA concentration was measured by using QIAxpert Instrument (QIAGEN). cDNA was synthesized using SuperScript® VILO™ cDNA. Synthesis Kit (#11754: Thermo Fisher Scientific). The synthesis of cDNA was performed by the method described in the kit. […] Quantitative polymerase chain reaction (qPCR) was conducted using ABI PRISM® 7900HT (Thermo Fisher Scientific) by a fluorescence probe method. […]
Background: In qPCR the cycle at which signal appears reflects the starting amount.

Experiment [2] relates to hippocampal vesicular acetylcholine transporter (VAChT). In words: Fimbria-fornix lesioned rat model: optical density in hippocampal VAChT. As to conditions: fimbria-fornix lesioned rats, oral once a day after the operation, % of sham-operated group, mean±SEM, # significant vs vehicle (19.5 ± 6.4). The experiment is classed as in vivo. How it is done: (§2) Neuroprotective and Restorative Effect on Cholinergic Neurons Using Fimbria-Formix Lesioned Rat Model
(§3) (1) Preparation of Fimbria-Fornix Lesioned Rat Model
(§4) In this studs Sprague-Dawley male rats (Charles River Laboratories Japan, Inc.) with a body weight of about 250 to 350 g were used. The rat was anesthetized under the combination of three drugs: midazolam (2 mg/kg s.c.), medetomidine hydrochloride (0.15 mg/kg s.c.) and butorphanol tartrate (2.5 mg/kg s.c.) and fixed with a brain stereotaxis apparatus (Narishige Co., Ltd.). The cranial was exposed and a hole with 5 mm width was drilled in the skull from the median line 2 mm posterior to Bregma. A razor with 4 mm width was pierced into the Bregma in 5.5 mm depth to cut fimbria-fornix. […]
(§5) The prepared brain coronal frozen sections were stained with DAB (DAB PEROXIDASE SUBSTRATE KIT (Vector, SK-4100)) using a ChAT antibody (Santa Cruz, SC-20672) or a VAChT antibody (Merck Millipore, ABN100) as a primary antibody. The section image including the medial septal area or hippocampus as shown in “The mouse Brain in stereotaxic coordinates” (COMPACT THIRD EDITION, Keith B. J. Franklin & George Paxinos) was taken by an all-in-one fluorescence microscope (KEYENCE, BZ-X710) and ChAT positive cells of the medial septal area or optical density (OD) in hippocampal VAChT were measured by BZ analysis software (KEYENCE). […] Data are expressed as the mean±SEM. […]

In experiment [3] the test system is ChAT positive cells of the medial septal area. In words: Evaluation in human tau P301S transgenic mouse (ChAT positive cells, medial septal area). The experiment is classed as in vivo. As to conditions: human tau P301S transgenic mice, oral once a day for three months (four- to seven-month-old), Dose: 5 mg/kg, mean±SEM, # significant vs vehicle (83.0 ± 5.8).
Excerpt: Evaluation in Human Tau P301S Transgenic Mouse
as §1
In this study, the test compounds were orally administered to human tau P301S transgenic mice once a day for three months from four-month-old to seven-month-old. The vehicle used was 0.01 mol/L hydrochloric acid.
At the initial day of the administration (four-month-old) and at the next day of the final administration, mice of vehicle administration group and test compound administration group were anesthetized under pentobarbital (50 mg/kg, i.p.) and perfused with PBS. After the perfusion, the forebrain including the medial septal area was collected and fixed with 4% parafomaldehyde.
(3) Preparation of Brain Coronal Frozen Section
The collected forebrain including the medial septal area was immersed and shaken overnight in 4% paraformaldehyde. […]
The prepared brain coronal frozen sections were stained with DAB (DAB PEROXIDASE SUBSTRATE KIT (Vector, SK-4100)) using a ChAT antibody (Santa Cruz, SC-20672) as a primary antibody. The section image including the medial septal area as shown in “The mouse Brain in stereotaxic coordinates” (COMPACT THIRD EDITION, Keith B. J. Franklin & George Paxinos) was taken by an all-in-one fluorescence microscope (KEYENCE, […]) and […] positive cells around the major axis of the medial septal area were counted by BZ analysis software (KEYENCE). […] Data are expressed as the mean±SEM. […]

The test system is the same in experiment [4]. In words: Fimbria-fornix lesioned rat model: ChAT positive cells of the medial septal area. As to conditions: fimbria-fornix lesioned rats, oral once a day after the operation, % of sham-operated group, mean±SEM, # significant vs vehicle (38.4 ± 5.0). The experiment is classed as in vivo. How it is done:
as §2, §3, §4, §5

The subject of experiment [5] is acetylcholine (ACh) in cerebrospinal fluid (CSF). In words: Measurement of acetylcholine (ACh) in rat cerebrospinal fluid (CSF). The experiment is classed as in vivo. As to conditions: Fischer 344 male rats, oral once a day at 10 mg/kg for three days, CSF 24 hours after administration, LC-MS. On the procedure: Measurement of Acetylcholine (ACh) in Rat Cerebrospinal Fluid (CSF)
Thus, the changes in acetylcholine in CSF were measured in order to determine the changes in intracerebral acetylcholine by the test compounds.
(2) Compound Administration
In this study Fischer 344 male rats (Charles River Laboratories Japan, Inc.) with a body weight of about 150 to 250 g were used. The test compounds were orally administered to the rats once a day at 10 mg/kg for three days. The vehicle used was 0.01 mol/L hydrochloric acid.
At 24 hours after the administration of the vehicle and the test compounds, the CSF was collected from cisterna magna in a tube containing AchE inhibitors under pentobarbital anesthesia. The collected CSF was centrifuged at 3500×g at 4° C. for 10 minutes and the supernatant was collected. The collected supernatant was frozen with liquid nitrogen, and then stored at −80° C.
(4) Measurement of Ach by LC-MS
To 10 μL of the CSF was added 50 μL of acetylcholine-d9 chloride (ACh-d9) at a final concentration of 0.34 nmol/L as an internal standard. […] The supernatant was collected and subjected to LC/MS ([…]), and Ach was detected as precursor ion at m/z 146.050 and as product ion at m/z 87.071 and ACh-d9 as an internal standard was detected as precursor ion at m/z 155.088 and as product ion at m/z 87.000.

Experiment [6] has as its system rat primary septal neuron culture. In words: Measurement of acetylcholine (ACh) release in the rat primary septal neuron culture system in the presence of NGF. The experiment is classed as cell-based. As to conditions: rat primary septal neurons, with NGF, one day after compound addition, HPLC. The text has this:
Measurement of Acetylcholine (ACh) Release in the Rat Primary Septal Neuron Culture System in the Presence of NGF
(1) Rat Primary Septal Neuron Culture
The septal area was isolated from Sprague-Dawley (SD) rats (Charles River Laboratories Japan, Inc.) at a fetal age of 18 days, and cultured. Specifically, fetuses were aseptically removed from pregnant rats under isoflurane anesthesia. The brain was extracted from each fetus, and immersed in ice-cooled L-15 medium (11415-064. Thermo Fisher Scientific), The septal area was dissected from the extracted brain under a stereoscopic microscope. The dissected septal area was subjected to enzyme treatment in an enzyme solution containing 0.25% trypsin (15050-065. Thermo Fisher Scientific) and 0.01% DNase (D5025-1.50KU, Sigma) at 37° C. for 30 minutes, thereby dispersing the cells. In this case, the enzyme reaction was terminated by adding inactivated horse serum (26050-088. Thermo Fisher Scientific). The enzyme-treated solution was centrifuged at 1000 rpm for 3 minutes, and the supernatant was removed. A medium in an amount of 10 mL was added to the obtained cell mass. […]
One day after compound addition, an amount of ACh release was measured by HPLC in the following manner. […]

The text below walks through data of patent US11420980B2, “Salt of pentacyclic compound and crystal thereof” (Eisai R&D Management Co., Ltd., priority 2019, dated 2022).

In the case of `CN1CCc2c(sc3nc4n(c(=O)c23)-c2sccc2C(=O)N(C)C4)C1` [Reference Example 1, 5,10-dimethyl-5,6,9,10,11,12-hexahydropyrido[4″,3″:4′,5′]thieno[2′,3′:4,5]pyrimido[1,2-a]thieno[3,2-f][1,4]diazepine-4,13-dione], the “percentage of ChAT mRNA expression levels increased from the vehicle administration group” value in experiment [1] amounted to 56.4%. Further, the “OD in hippocampal VAChT (%) in test compound administration group” value in experiment [2] is recorded as 66.1 ± 14.2^# %. Further, the “Ratio (%) of number of ChAT positive cells compared to that in the initial administration” value in experiment [3] was 105.3 ± 4.3^# %. Moreover, in experiment [4], the “Number of ChAT positive cells (%) in test compound administration group” value is reported as 74.1 ± 9.3^# %. Besides, in experiment [5], the “ACh concentration in CSF, percentage (% of control) versus vehicle administration group” value is recorded as 156.8%. The “compound concentration showing a 20% increase from the ACh concentration in the buffer of the control group” value in experiment [6] is 0.1 µM.
